Series [1] deals with T1, FKBP12 (Homo sapiens, UniProt P62942). Put plainly: Rotamase inhibition assay (N-succinyl-Ala-Ala-Pro-Phe-p-nitroanilide, chymotrypsin-coupled). In kind it is biochemical. To be noted: Table 1; read-out: Rotamase Ki(app). As for the experimental part: In the rotamase inhibition assay, isomerization of an artificial substrate N-succinyl-Ala-Ala-Pro-Phe-p-nitroanilide is followed spectrophotometrically. The assay includes the cis form of the substrate, FKBP12, the compound being tested, and chymotrypsin. Chymotrypsin is able to cleave p-nitroaniline from the trans form of the substrate, but not from the cis form. Release of p-nitroaniline is measured spectrophotometrically. Using this assay, various amounts of the FKBP rotamase-inhibiting compounds of formula (I) were added to cis-N-succinyl-alanine-alanine-proline-phenylalanine-para-nitroaniline (BACHEM, 3132 Kashiwa Street, Torrance, Calif. 90505) in the presence of FKBP12 and chymotrypsin. Spectrophotometric measurements of p-nitroaniline concentrations allowed estimation of the apparent Ki values, which are provided in Table 1 below.
T1 sequence (P62942 whole entry, species assumed): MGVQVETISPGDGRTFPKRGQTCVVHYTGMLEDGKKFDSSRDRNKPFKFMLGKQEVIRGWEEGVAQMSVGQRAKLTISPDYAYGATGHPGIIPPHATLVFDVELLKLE

In series [2] the target is T1, FKBP12. Put plainly: Affinity for FKBP-12 (Ki), succinyl-Ala-Leu-Pro-Phe-pNA chymotrypsin-coupled assay. In kind it is biochemical. More on the design: key to FKBP12 inhibition (in Kiapps column): NI: no inhibition; NSI: no significant inhibition. To be noted: for Ki: Table 2, read-out: FKBP12 Kiapps. As for the experimental part:
In a quartz cuvette, a final 1 mL buffer concentration was reached (50 mM Hepes, 100 mM NaCl, pH 8.0). Within this final reaction volume, 3.5 μL […] FKBP-12 (in 50 mM Hepes, 100 mM NaCl, pH 8.0) and 10 μL test compound in DMSO were added. The reaction was initiated by adding 10 μL chymotrypsin (100 mg/mL in 1 mM HCl) followed by 5 μL (1-20 mM succinyl-Ala-Leu-Pro-Phe-pNA in 240 mM LiCl/TFE).
The absorbance at 390 nm versus time was monitored for up to 400 seconds. Rate constants were determined from the absorbance versus time plots generated.

Series [3] deals with PC12 rat pheochromocytoma cells. Put plainly: Neurite outgrowth activity in PC12 rat pheochromocytoma assay. In kind it is cell-based. The conditions noted are these: PC-12 cells; active concentration range. As for the experimental part:
For example, compounds may be tested to determine their neurotrophic activity using the method described by Lyons et al., Proc. Natl. Acad. Sci., 91:3191-3195 (1994). In this rat pheochromocytoma assay for neurite outgrowth, PC12 rat pheochromocytoma cells are maintained at 37° C. and 5% CO2 in Dulbecco's modified Eagle's medium (DMEM) supplemented with 10% heat-inactivated horse serum and 5% heat-inactivated fetal bovine serum. Cells are then plated, coated at 10^5 per 35 mm culture well with rat tail collagen at […], and allowed to attach. Medium is then replaced with DMEM supplemented with 2% horse serum, 1% fetal bovine serum, nerve growth factor (NGF), and/or varying concentrations of test compounds. The control cultures are administered NGF without any of the test compounds.

In series [4] the target is T1, FKBP12. Kind of series: Binding to FKBP by microcalorimetry. As to the method: Binding of compounds to FKBP may be measured directly using microcalorimetry. Calorimetric titrations are carried out using the MCS-ITC instrument (MicroCal Inc., Northhampton, Mass.). The titrations may be conducted as follows. Protein dialysate is degassed for 15 minutes using MicroCal equipment. Stock inhibitor solution is added to co-solvent (typically DMSO) and degassed dialysate, followed by brief sonication, to produce the final inhibitor solutions to be used in the titrations. Final inhibitor solutions are in the concentration range 10 to 80 μM. Dialyzed protein is added to co-solvent and degassed dialysate to produce FKBP12 solutions in the concentration range 200 to 1600 μM. As both solutions are prepared using degassed dialysate, no additional degassing of the solutions is performed. Co-solvent is added to the protein solutions to maintain a fixed co-solvent concentration throughout the course of the titration. Protein is titrated into inhibitor using a 125-μL injection syringe. The titrations are conducted with the ligand in the cell due to low solubility of inhibitors. Typically, a preliminary 2-μL injection is followed by fifteen 8-μL injections made at varying injection intervals. A full set of dilution controls is conducted for each titration. An appropriate volume of co-solvent is added to degassed dialysate to produce the buffered co-solvent solution used to obtain heats of dilution of the reactants. After correcting for the heats of dilution and deletion of the preliminary injection, the titration results are fitted using the “One Set of Sites Model” in the ORIGIN software package supplied with the instrument.

Series [5] in a line: Solubility noted in FKBP12 assay table. In kind it is physicochemical. To be noted: read-out: Sol (solubility).

“And” between values parts separate entries of the source, which are not always exact repeats. Equal entries are not always repeated. A value given as a limit tells only on which side of the number the result lay.

One may read the Kd as the constant that tells how readily two partners part at equilibrium. For orientation: solubility means how much of the substance goes into solution per volume.

Consider `COc1cc(NS(=O)(=O)N2CCCC[C@H]2C(=O)OC(CCCc2ccccc2)CCCc2ccccc2)cc(OC)c1OC` [Compound 22, 1-(3,4,5-Trimethoxy-phenylsulfamoyl)-piperidine-2S-carboxylic acid 4-phenyl-1-(3-phenyl-propyl)-butyl ester], for which, at FKBP12 [1], the Ki was 382 nM.
Still for that read-out and setting: as for `CCC(C)(C)NS(=O)(=O)N1CCCC[C@H]1C(=O)OC(CCCc1ccccc1)CCCc1ccccc1` [Compound 23, 1-(1,1-Dimethyl-propylsulfamoyl)-piperidine-2S-carboxylic acid 4-phenyl-1-(3-phenyl-propyl)-butyl ester], the figure is 6990 nM.
In the case of `O=C(OCCCCc1ccccc1)[C@@H]1CCCCN1S(=O)(=O)Nc1ccccc1` [Compound 24, 1-Phenylsulfamoyl-piperidine-2S-carboxylic acid 4-phenyl-butyl ester], the Ki at FKBP12 [1] is 1160 nM; on FKBP12 [2], 1160 nM and 508 nM.
Turning to `COc1cc(NS(=O)(=O)N2CCCC[C@H]2C(=O)OCCCCc2ccccc2)cc(OC)c1OC` [Compound 25, 1-(3,4,5-Trimethoxy-phenylsulfamoyl)-piperidine-2S-carboxylic acid 4-phenyl-butyl ester], the “Neurite-Outgrowth Activity (PC-12)” value in series [3] was in the range of 0.001 to 1 µM. Further, the Ki at FKBP12 [1] is 200 nM; at FKBP12 [2], 200 nM and 180 nM. On FKBP12 [4], this compound returned a Kd of 1200 nM.
As for `CCC(C)(C)NS(=O)(=O)N1CCCC[C@H]1C(=O)OCCCCc1ccccc1` [Compound 26, 1-(1,1-Dimethyl-propylsulfamoyl)-piperidine-2S-carboxylic acid 4-phenyl-butyl ester], the Ki at FKBP12 [1] is 193 nM; at FKBP12 [2], 193 nM and 218 nM.
In the case of `CCC(C)(C)NS(=O)(=O)N1CCC[C@H]1C(=O)OCCCc1cccnc1` [Compound 31, 1-(1,1-Dimethyl-propylsulfamoyl)-pyrrolidine-2S-carboxylic acid 3-pyridin-3-yl-propyl ester], the “Neurite-Outgrowth Activity (PC-12)” value in series [3] is 0.001 to 1 µM. Moreover, the Ki was 2790 nM at FKBP12 [1]; 2790 nM and 1100 nM at FKBP12 [2]. The compound further returned a Kd on FKBP12 [4] of 4500 nM.
Regarding `O=C(OCCCc1cccnc1)[C@@H]1CCCN1S(=O)(=O)Nc1ccccc1` [Compound 33, 1-Phenylsulfamoyl-pyrrolidine-2S-carboxylic acid 3-pyridin-3-yl-propyl ester], the “Neurite-Outgrowth Activity (PC-12)” value in series [3] was 0.001 to 1 µM. Besides, the Kd at FKBP12 [4] turned out to be 14000 nM. The Ki on FKBP12 [2] was determined as 3960 nM.
Take `COc1cc(NS(=O)(=O)N2[C@@H]3CC[C@@H](C3)[C@H]2C(=O)OCCCCc2ccccc2)cc(OC)c1OC` [Compound 84, 2-(3,4,5-Trimethoxy-phenylsulfamoyl)-2-aza-bicyclo[2.2.1]heptane-exo-3-carboxylic acid 4-phenyl-butyl ester]: in series [5], the solubility was less than 30 µM. Also, on FKBP12 [2] (at 1 μM), the “FKBP12 inhibition (in Kiapps column)” value was “NI”.
